Results taken from article PMC3142127, “Structural Analysis of Papain-Like NlpC/P60 Superfamily Enzymes with a Circularly Permuted Topology Reveals Potential Lipid Binding Sites” (PLoS ONE, 2011).

Molecular target: T1, BcPPNE (Bacillus cereus, UniProt Q74NK7)
T1 construct: gene BCE_A0238; weak tetramer in solution
T1 sequence (Q74NK7 1-195): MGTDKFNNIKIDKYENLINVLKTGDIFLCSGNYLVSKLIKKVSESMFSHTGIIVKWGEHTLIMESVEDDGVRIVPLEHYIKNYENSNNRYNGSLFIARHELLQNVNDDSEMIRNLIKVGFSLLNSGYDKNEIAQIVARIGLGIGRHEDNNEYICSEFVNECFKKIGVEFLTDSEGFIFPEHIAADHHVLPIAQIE
Assay: Thermofluor (thermal shift)
Type: binding
Conditions: no shift value printed

| SMILES | Thermofluor (thermal shift) | Thermofluor (thermal shift) (crystals soaked at 1 mM showed no ligand density, L-Lys remained bound) |
| --- | --- | --- |
| N=C(N)NCCC[C@H](N)C(=O)O [L-arginine] | Thermofluor experiments indicated that BcPPNE also binds L-arginine and O-phospho-L-serine |  |
| N[C@@H](COP(=O)(O)O)C(=O)O [O-phospho-L-serine] |  | Thermofluor experiments indicated that BcPPNE also binds L-arginine and O-phospho-L-serine |
